Drawing on US20230130144A1, “PHARMACEUTICAL COMBINATION AND USE THEREOF” (NATURAL MEDICINE INSTITUTE OF ZHEJIANG YANGSHENGTANG CO., …, priority 2020, published 2023), this text covers viability and cell viability for 11 molecules.

One may read the viability as a read-out of living cells in per cent, often relative to untreated cells. Usually cell viability stands for a read-out of living cells in per cent, often relative to untreated cells.

What all share (type): cell-based
The subject of data set [1] is HOS human osteosarcoma cells. Briefly: Cell count (Trypan Blue) viability, drug combination administration, HOS cells. Particulars: 24 h, read-out: cell viability. As for the experimental part:
HEK293 cells, HOS human osteosarcoma cells and 143B human osteosarcoma cells were subcultured in an incubator at 37° C., 5% CO2 using a RPMI-1640 medium containing 10% fetal bovine serum (FBS).
(§1) 10 μL was taken for counting.
(3) After counting, the cells were diluted to 1×10^5 cells/ml.
(§2) (5) After 24 h of dosing, the medium was discarded. […] The cells were digested for 5 min.

Data set [2] relates to 143B human osteosarcoma cells. Briefly: Cell count (Trypan Blue) viability, drug combination administration, 143B cells. Particulars: 24 h; for viability at 20 µM / viability at 50 µM / viability at 10 µM: Homo sapiens, read-out: cell viability. As for the experimental part:
as §1, §2

A further data set deals with MC38 colon cancer cells. In words: Cell viability of colon cancer cells by the method of Example 1. Conditions: Mus musculus. As for the experimental part: (§3) (6) After digestion, equivalent amounts of PBS were added into each well and mixed uniformly. Then, 10 μL/well of Trypan Blue solution was added and mixed uniformly. 10 μL of the well-mixed solution was taken and counted. In accordance with “Cell viability=Cell Count of Test Group/Cell Count of Control Group×100%”, the cell viability of various groups was calculated.
For example, as for MC38 colon cancer cells, the control group involves adding the solvent DMSO alone, the Nic group involves adding 1 μM of Niclosamide, the Vc group involves adding 0.5 mM of ascorbic acid, the Nic+Vc group involves adding 1 μM of Niclosamide and 0.5 mM of ascorbic acid.

For the next data set, the system named is DB lymphoma cells. Briefly: Cell viability of lymphoma cells by the method of Example 1. Particulars: Homo sapiens. The method, then: as §3
For example, as for the DB lymphoma cells, the control group involves adding the solvent DMSO alone, the Vc group involves adding 2 mM of ascorbic acid, the low-dose Nic group involves adding 1 μM of Niclosamide, the low-dose Nic+Vc group involves adding 1 μM of Niclosamide and 2 mM of ascorbic acid, the high-dose Nic group involves adding 2 μM of Niclosamide, and the high-dose Nic+Vc group involves adding 2 μM of Niclosamide and 2 mM of ascorbic acid.

Molecules are shown by their SMILES. Values joined by “and” are separate entries in the source; they are usually repeats but may differ in a detail not shown here. Equal values may be shown once. Read-outs that look alike come from different tables or passages of the source.

With `Cn1c(=O)c2c(ncn2CC(=O)Nc2ccc(-c3ccccc3)nn2)n(C)c1=O` [ETC-159], the values for the viability at 20 µM in data set [1] (HOS) and in data set [2] (143B) were 67% and 60%, respectively.

With `Cc1cc(-c2ncc(CC(=O)Nc3ccc(-c4cnccn4)cn3)cc2C)ccn1` [LGK974], the figures for the viability at 20 µM in data set [1] (HOS) and in data set [2] (143B) were 67% and 64%, respectively.

As to `O=C(O)CC[C@H]1CC[C@@](c2cc(F)ccc2F)(S(=O)(=O)c2ccc(Cl)cc2)CC1` [MK0752], the viability at 20 µM is 67% in data set [1] (HOS) and 62% in data set [2] (143B).

Take `O=C(Nc1ccc([N+](=O)[O-])cc1Cl)c1cc(Cl)ccc1O` [Niclosamide]: the viability at 1 µM with MC38 colon cancer cells (MC-38, 1 μM Niclosamide alone) is 82%; with DB lymphoma cells (1 μM Niclosamide alone (low-dose)), 57%. The values for the viability at 50 µM in data set [1] (HOS) and in data set [2] (143B) were 56% and 59%, respectively. In addition, in the data set with DB lymphoma cells (2 μM Niclosamide alone (high-dose)), the viability at 2 µM was 52%.

Take `CC(C)(C(=O)NCC(F)(F)C(F)(F)F)C(=O)N[C@@H]1C(=O)Nc2ccccc2-c2ccccc21` [RO4929097]: the figures for the viability at 10 µM in data set [1] (HOS) and in data set [2] (143B) were 56% and 58%, respectively.

Take `Cc1c(C(=O)Nc2ccc(N3C[C@@H](C)O[C@@H](C)C3)nc2)cccc1-c1ccc(OC(F)(F)F)cc1` [Sonidegib]: the viability at 10 µM in data set [1] (HOS) turned out to be 89%; in data set [2] (143B) it was 74%.

Take `CC1=C(CC(=O)O)c2cc(F)ccc2/C1=C\c1ccc([S+](C)[O-])cc1` (centres unmarked) [Sulindac]: in data set [1] (HOS), the viability at 50 µM was found to be 92%.

Take `CS(=O)(=O)c1ccc(C(=O)Nc2ccc(Cl)c(-c3ccccn3)c2)c(Cl)c1` [Vismodegib]: the viability at 50 µM in data set [1] (HOS cells, single drug 50 μM) came to 53%; in data set [2] (143B cells, single drug 50 μM), 60%.

Turning to `O=C1O[C@H]([C@@H](O)CO)C(O)=C1O` [ascorbic acid], the viability at 500 µM with MC38 colon cancer cells (MC-38, 0.5 mM ascorbic acid alone) came to 105%. In addition, the viability at 2000 µM with DB lymphoma cells (2 mM ascorbic acid alone) came out at 76%.

`COc1ccc2cc3[n+](cc2c1OC)CCc1cc2c(cc1-3)OCO2` [berberine]: the viability at 20 µM in data set [1] (HOS) was 82%; in data set [2] (143B), 94%.

For the molecule `O=C1O[C@H]([C@@H](O)CO)C([O-])=C1O.[Na+]` [sodium ascorbate], in data set [2] (143B cells, 0.5 mM sodium ascorbate alone), the cell viability was 106% and 90% and 83% and 77% and 80% and 81% and 82%.
